The source made the active and inactive calls. The calls are words filed in the database; no cut-off is given here.
How the values were obtained:
MDA-MB-231 [1] = assay: Antimigratory activity against human MDA-MB-231 cells assessed as reduction in cell migration towards wound area at 45 uM measured up to 24 hrs by inverted microscopic analysis; assay type: functional, cell-based
MDA-MB-231 [2] = assay: Antimigratory activity against human MDA-MB-231 cells at 15 uM after 24 hrs by crystal violet staining based transwell assay relative to control; assay type: functional
[3] = molecular target: Matrix metalloproteinase-9 (Homo sapiens) (UniProt P14780); assay: Inhibition of MMP9 activity in human MDA-MB-231 cells at 45 uM measured after 24 hrs by coomassie brilliant blue staining based gelatin zymographic method; assay type: cell-based
Sequence of Matrix metalloproteinase-9 (Homo sapiens) (P14780 whole entry): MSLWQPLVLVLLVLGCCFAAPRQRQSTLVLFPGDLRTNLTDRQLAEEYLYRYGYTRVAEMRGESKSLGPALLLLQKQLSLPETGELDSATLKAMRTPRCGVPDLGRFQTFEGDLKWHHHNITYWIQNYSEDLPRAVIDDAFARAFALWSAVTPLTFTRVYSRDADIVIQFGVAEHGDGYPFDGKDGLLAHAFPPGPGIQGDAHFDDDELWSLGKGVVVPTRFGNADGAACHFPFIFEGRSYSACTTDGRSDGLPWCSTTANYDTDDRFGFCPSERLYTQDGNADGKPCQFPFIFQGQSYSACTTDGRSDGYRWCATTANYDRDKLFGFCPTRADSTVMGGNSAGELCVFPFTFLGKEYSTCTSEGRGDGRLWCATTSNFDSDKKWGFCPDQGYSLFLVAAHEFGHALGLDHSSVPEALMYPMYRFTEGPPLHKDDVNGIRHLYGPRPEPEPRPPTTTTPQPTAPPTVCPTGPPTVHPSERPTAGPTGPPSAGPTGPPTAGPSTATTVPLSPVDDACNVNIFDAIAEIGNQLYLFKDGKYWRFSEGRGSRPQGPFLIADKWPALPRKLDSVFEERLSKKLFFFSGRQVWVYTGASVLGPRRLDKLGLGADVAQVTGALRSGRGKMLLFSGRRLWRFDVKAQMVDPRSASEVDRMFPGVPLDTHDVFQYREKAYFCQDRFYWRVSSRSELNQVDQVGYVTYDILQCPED

MDA-MB-231 [4] = assay: Anti-invasive activity against human MDA-MB-231 cells at 15 uM after 24 hrs by crystal violet staining based matrigel coated transwell assay relative to control; assay type: functional
[5] = molecular target: 72 kDa type IV collagenase (Homo sapiens) (UniProt P08253); assay: Inhibition of MMP2 activity in human MDA-MB-231 cells at 45 uM measured after 24 hrs by coomassie brilliant blue staining based gelatin zymographic method; assay type: cell-based
Sequence of 72 kDa type IV collagenase (Homo sapiens) (P08253 110-660 limits assumed): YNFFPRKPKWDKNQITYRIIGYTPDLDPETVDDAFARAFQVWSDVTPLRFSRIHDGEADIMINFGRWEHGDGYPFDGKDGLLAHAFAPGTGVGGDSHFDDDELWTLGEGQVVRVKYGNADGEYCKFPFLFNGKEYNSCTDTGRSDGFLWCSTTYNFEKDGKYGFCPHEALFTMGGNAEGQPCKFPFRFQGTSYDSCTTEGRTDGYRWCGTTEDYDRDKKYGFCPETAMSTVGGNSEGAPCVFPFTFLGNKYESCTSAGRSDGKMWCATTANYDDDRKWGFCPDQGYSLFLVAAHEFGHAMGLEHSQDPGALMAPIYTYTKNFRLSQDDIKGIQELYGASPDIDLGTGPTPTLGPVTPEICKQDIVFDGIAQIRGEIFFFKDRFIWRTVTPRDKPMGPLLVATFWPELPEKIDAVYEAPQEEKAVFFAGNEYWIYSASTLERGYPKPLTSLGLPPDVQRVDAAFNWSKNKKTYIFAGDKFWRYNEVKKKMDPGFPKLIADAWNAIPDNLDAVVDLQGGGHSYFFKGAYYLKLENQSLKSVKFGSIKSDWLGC

[6] = molecular target: 72 kDa type IV collagenase (Homo sapiens) (UniProt P08253); assay: Inhibition of MMP2 activity in human MDA-MB-231 cells measured after 24 hrs by coomassie brilliant blue staining based gelatin zymographic method; assay type: cell-based
MDA-MB-231 [7] = assay: Anti-invasive activity against human MDA-MB-231 cells at 45 uM after 24 hrs by crystal violet staining based matrigel coated transwell assay relative to control; assay type: functional
MDA-MB-231 [8] = assay: Down regulation of MMP9 expression in human MDA-MB-231 cells after 24 hrs by Western blot analysis; assay type: functional, cell-based
MDA-MB-231 [9] = assay: Cytotoxicity against human MDA-MB-231 cells after 72 hrs by MTT assay; assay type: functional, cell-based; settings: MDA-MB-231, 72 h
MDA-MB-231 [10] = assay: Antimigratory activity against human MDA-MB-231 cells at 45 uM after 24 hrs by crystal violet staining based transwell assay relative to control; assay type: functional
MDA-MB-231 [11] = assay: Antimigratory activity against human MDA-MB-231 cells assessed as reduction in cell migration towards wound area at 5 to 45 uM measured up to 24 hrs by inverted microscopic analysis; assay type: functional, cell-based
MDA-MB-231 [12] = assay: Down regulation of MMP2 expression in human MDA-MB-231 cells after 24 hrs by Western blot analysis; assay type: functional, cell-based
[13] = molecular target: Matrix metalloproteinase-9 (Homo sapiens) (UniProt P14780); assay: Inhibition of MMP9 activity in human MDA-MB-231 cells measured after 24 hrs by coomassie brilliant blue staining based gelatin zymographic method; assay type: cell-based

Question: `COC(=O)c1cc(OC)c2c(c1-c1c(C(=O)OC)cc(OC)c3c1OCO3)OCO2` was tested. Which Activity (MDA-MB-231 [1]) did it give?
Answer: Active

Question: With `COc1cc2c(c3c1OCO3)-c1c(cc(OC)c3c1OCO3)CN(CCc1ccc3c(c1)OCO3)C2` as the compound, how does the Activity (MDA-MB-231 [2]) read?
Answer: 32.9%

Question: What about the inhibition [3] of the same compound?
Answer: 30.8%

Question: What about the Activity (MDA-MB-231 [4]) of the same compound?
Answer: <=54.4%

Question: And the inhibition [5]?
Answer: 56.9%

Question: And the inhibition [6]?
Answer: Dose-dependent effect

Question: And the Activity (MDA-MB-231 [7])?
Answer: 71.2%

Question: What about the Activity (MDA-MB-231 [8]) of the same compound?
Answer: Dose-dependent effect

Question: And the IC50 (MDA-MB-231 [9])?
Answer: 88 µM

Question: What about the Activity (MDA-MB-231 [10]) of the same compound?
Answer: 47.5%

Question: And the Activity (MDA-MB-231 [11])?
Answer: Active

Question: What about the Activity (MDA-MB-231 [12]) of the same compound?
Answer: Dose-dependent effect

Question: What about the inhibition [13] of the same compound?
Answer: Dose-dependent effect

— ChEMBL document CHEMBL4368854, “Assessment of a bifendate derivative bearing a 6,7-dihydro-dibenzo[c,e]azepine scaffold as a potential anti-metastatic agent” (Medchemcomm, 2018)
